Measurements reported in PubChem BioAssay AID743485 (Broad Institute, 2014).

The molecules below were run on Mycobacterium tuberculosis replicating, CFU count, imaging (assay: M. tuberculosis CFU reduction, CFU imaging, dry powder, dose response (AID 743485)).

`Cn1c(NC(=O)c2ccccc2)nc2c3cnccc3ccc21` and `Cn1c(NC(=O)c2ccccc2)nc2c3ccncc3ccc21` cannot be ordered by AC90: less than 8 µM for the first, less than 8 µM for the second.

`Cn1c(NC(=O)c2ccccc2)nc2c3nccnc3ccc21` and `Cn1c(NC(=O)c2ccccc2)nc2c3ncccc3ccc21` cannot be ordered by AC90: less than 16 µM for the first, less than 8 µM for the second.
